The series can be described thus: Raman spectroscopic measurement of solute concentration in multi-component solvent mixtures. The format is physicochemical. As to conditions: prepared at 10 mg/mL.

Experimental: FIGS. 1B and 1C depict calibration spectra for a two-component system (component A and component B) in which the solute from FIG. 1A is homogeneously distributed. FIG. 1B represents a calibration spectrum for single-component A while FIG. 1C represents a calibration spectrum for single-component B. The concentration of both single-component systems is 15 mg/mL. FIG. 1D depicts a Raman spectrum of the two-component system (A and B) with an unknown solute concentration. The ratio of A:B is 1:1 in the unknown sample. FIG. 1E is a representation of the Raman intensities at a particular frequency (v1) in both calibration spectra. A dotted line has been drawn between the calibration intensities and illustrates the expected Raman intensities at frequency v1 due to the solute molecule in mixtures of both components. […] In view of FIG. 1E, the ratio of components in the unknown sample can be used to determine the concentration of solute. […] A solute concentration above 15 mg/mL results in a Raman intensity greater than (IA+IB)/2 while a solute concentration below 15 mg/mL results in a Raman intensity less than (IA+IB)/2. Due to a directly proportional and linear relationship between Raman scattering intensity and concentration, values both above and below 15 mg/mL are easily calculated based on the measured Raman intensity of the unknown (multi-component) sample.
In another embodiment, automated software can be programmed to analyze the data. First, the software identifies the spectral peaks and intensities that are unique to the solute molecule by direct comparison with a solvent only (signature) spectrum. The various single-component (calibration) Raman spectra are then accessed and a calibration matrix is configured and saved from these single-component data. […] The concentration of solute in the multi-component system is calculated using a weighted average determination. For instance, the concentration (C) of a solute in a multi-component system can be calculated by using equation (1), C=a1c1+a2c2+a3c3+ . . . […]

`CC(=O)Nc1ccc(O)cc1` [Acetaminophen]: the “mean value for the concentration” value (1:1:1 ternary mixtures by volume (Table II), RSD 6.7 percent) is 9.48 mg/mL and the “mean value for the concentration” value (1:3 binary mixtures of excipients by volume (Table I), two trials, RSD 9.6 percent) came to 10.18 mg/mL.
Regarding `CC(=O)Oc1ccccc1C(=O)O` [Acetylsalicylic acid], the “mean value for the concentration” value (1:1 binary mixtures by volume (Table IV), RSD 9.7 percent) was found to be 10.19 mg/mL.

Values taken from patent US7521254B2, “Quantitative measurements of concentration and solubility using Raman spectroscopy” (Transform Pharmaceuticals, Inc., priority 2004, dated 2009).
